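These data come from cells grown in 96-well plates and exposed to compound for 48 hours at five concentrations. The concentration for 50% growth inhibition is given as GI50.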 The source made the active and inactive calls. Rule as the data show it: active = GI50 up to about 1.1 µM and inactive = higher.
Legend:
Assay in all cases: inhibition of tumour cell growth, NCI panel, 48 h
IGROV-1 = tested on: IGROV-1
OVCAR-4 = tested on: OVCAR-4
RXF 393 = tested on: RXF 393
RPMI-8226 = tested on: RPMI-8226
Malme-3M = tested on: Malme-3M
HCT-116 = tested on: HCT-116
NCI-H522 = tested on: NCI-H522
OVCAR-3 = tested on: OVCAR-3
SK-MEL-28 = tested on: SK-MEL-28
NCI-H460 = tested on: NCI-H460
HT-29 = tested on: HT-29
SK-MEL-5 = tested on: SK-MEL-5
OVCAR-5 = tested on: OVCAR-5
K562 = tested on: K562
DMS-273 = tested on: DMS-273
SF-268 = tested on: SF-268
M19-MEL = tested on: M19-MEL
UO-31 = tested on: UO-31
A549 = tested on: A549
DLD-1 = tested on: DLD-1

Measured: GI50

O=C(O)CCC(NC(=O)c1ccc(Nc2nc3ccc(C(F)(F)F)cc3nc2-c2ccccc2)cc1)C(=O)O (stereo unspecified)
inactive: IGROV-1 > 100 µM | OVCAR-4 > 100 µM | RXF 393 > 100 µM | RPMI-8226 > 100 µM | Malme-3M > 100 µM | HCT-116 > 100 µM | NCI-H522 > 100 µM | OVCAR-3 > 100 µM | SK-MEL-28 > 100 µM | NCI-H460 > 100 µM | HT-29 > 100 µM | SK-MEL-5 > 100 µM | OVCAR-5 > 100 µM | K562 29.6 µM | DMS-273 > 100 µM | SF-268 > 100 µM | M19-MEL > 100 µM | UO-31 > 100 µM | A549 > 100 µM | DLD-1 > 100 µM

C=CCCC1(C)CCCNC1=S (stereo unspecified)
inactive: IGROV-1 > 100 µM | OVCAR-4 > 100 µM | RXF 393 > 100 µM | RPMI-8226 > 100 µM | Malme-3M > 100 µM | HCT-116 > 100 µM | OVCAR-3 > 100 µM | SK-MEL-28 > 100 µM | NCI-H460 > 100 µM | HT-29 > 100 µM | SK-MEL-5 > 100 µM | OVCAR-5 > 100 µM | K562 > 100 µM | DMS-273 > 100 µM | UO-31 > 100 µM | A549 > 100 µM | DLD-1 > 100 µM

CCC12CCC[C@@]13C=C[C@H](O3)C(C)(C)C2=O (stereo partly specified)
inactive: IGROV-1 > 100 µM | OVCAR-4 > 100 µM | RXF 393 > 100 µM | RPMI-8226 > 100 µM | Malme-3M > 100 µM | HCT-116 > 100 µM | NCI-H522 > 100 µM | OVCAR-3 > 100 µM | NCI-H460 > 100 µM | HT-29 > 100 µM | SK-MEL-5 > 100 µM | OVCAR-5 > 100 µM | K562 > 100 µM | DMS-273 > 100 µM | SF-268 > 100 µM | M19-MEL > 100 µM | UO-31 > 100 µM | A549 > 100 µM | DLD-1 > 100 µM

CN(C)CCNCc1c2ccccc2c(CNCCN(C)C)c2ccccc12
inactive: IGROV-1 26.6 µM | OVCAR-4 28.3 µM | RXF 393 20.6 µM | RPMI-8226 31 µM | Malme-3M 18.4 µM | HCT-116 16.5 µM | NCI-H522 31 µM | OVCAR-3 37.5 µM | SK-MEL-28 63.8 µM | NCI-H460 27 µM | HT-29 14 µM | SK-MEL-5 12.8 µM | OVCAR-5 17.1 µM | K562 17.8 µM | DMS-273 34 µM | SF-268 27 µM | M19-MEL 24.5 µM | UO-31 > 100 µM | A549 23.1 µM | DLD-1 29.4 µM
